{
  "source": "paper PMC3944389",
  "about": "“Differential Neuroprotective Effects of 5′-Deoxy-5′-Methylthioadenosine” (PLoS ONE, 2014)",
  "key": {"[1]": {"test": "Parallel artificial membrane permeability assay (PAMPA), BBB model, passive diffusion", "format": "in vitro ADME", "experimental": "The PAMPA assay was used to determine the capacity of compounds to cross a blood brain barrier (BBB) model by passive diffusion, measuring the effective permeability of the compounds at an initial concentration of 200 µM. The buffer solution was prepared from a concentrated commercial solution (Pion, Billerica, MA, US) according to the manufacturer's instructions and the pH was adjusted to 7.4 with 0.5 M NaOH. The compound of interest was dissolved in the buffer solution (200 µM), the PAMPA sandwich was separated and the donor well was filled with 195 µL of the compound of interest. The acceptor plate and donor plate were brought together, with the underside of the membrane in contact with the buffer. An 4 µL aliquot of the phospholipid mixture (20 mg/ml) in dodecane was added to the filter of each well, and then 200 µL of buffer solution was added to each acceptor well. The plate was covered and incubated for 4 h at RT in a saturated humidity atmosphere with agitation and with 25 µm of an unstirred water layer in the Gut-Box (Pion). After 4 h, a 150 µL/well sample from the donor plate and a 150 µL/well sample from the acceptor plate were transferred to HPLC vials. Then, 100 µL from acceptor well, 5 µL from the donor well and 5 µL from the t0 samples were injected into an HPLC reverse-phase symmetry C18 column (150 mm×4.6 mm×5 µm, 100 Å; Waters). Transport was confirmed by HPLC mass spectrometry and matrix-assisted laser desorption/ionization time-of-flight (MALDI-TOF) spectrometry to ensure the compound had maintained its integrity. The phospholipid mixture used was a porcine polar brain lipid extract composed of 12.6% phosphatidylcholine (PC), 33.1% phosphatidylethanolamine (PE), 18.5% phosphatidylserine (PS), 4.1% phosphatidylinositol (PI), 0.8% phosphatidic acid and 30.9% of other compounds."}, "[2]": {"tested_on": "co-culture of bovine-brain endothelial cells (BBECs) and newborn rat astrocytes", "test": "In vitro cell model of transport across the BBB", "format": "in vitro ADME", "experimental": "A in vitro cell model of BBB permeability was established using a co-culture of bovine-brain endothelial cells (BBECs) and newborn rat astrocytes. The cells were first cultured in 24-well (Transwell^R) permeable supports with a surface area of 0.33 cm^2 and a pore size of 0.4 µm (Corning), the upper surface of which was coated with collagen type IV and fibronectin. The inserts were then placed upside down in a large petri dish, and 40 µL of a suspension (containing approximately 45,000 astrocytes) was placed on the bottom of each filter. The petri dish was incubated at 37°C for 1 h, and 40 µL of fresh DMEM+S was added to the bottom of each filter every 15 min. The inserts were then transferred back to the plate and incubated at 37°C in 5% CO2 for 3 d. Then, 2 h before seeding the BBECs, the medium was replaced by DMEM+S supplemented with 125 µg/mL heparin and 2 h later, the cells were seeded onto the inserts (45,000 cells per filter). The plate was incubated at 37°C in 5% CO2 for 3 more days, after which the medium was replaced by DMEM+S supplemented with cyclic adenosine monophosphate (cAMP) and RO-20-1724, and kept at 37°C in 5% CO2. On day 8 of the co-culture, the transendothelial electrical resistance (TEER) was measured to determine whether the system was ready for transport studies. To validate the maturity of the model, permeability assays with lucifer yellow (LY) were performed in parallel as a marker of the integrity of the in vitro barrier. During the permeability assay, the samples were co-incubated with LY (20 µM) to assess the integrity of the cellular monolayer during the assay."}, "[3]": {"tested_on": "rat mixed cultures of neurons and astrocytes", "test": "Oxygen-glucose deprivation (OGD) with iodoacetate, LDH release", "format": "cell-based", "conditions": "IAA 20 and 50 µM; MTA 10 µM or 100 µM, APV 100 µM", "experimental": "(§1) Finally, to prepare neuron-astrocyte co-cultures, neurons were resuspended in B27 Neurobasal medium plus 10% of foetal bovine serum (FBS) and then seeded onto a monolayer of astrocytes in 24-well plates at a density of 1–2×10^5 cells per well, the astrocytes having been prepared beforehand, as described elsewhere. One day later, the medium was replaced with B27-Neurobasal plus 10% FBS medium, and the cells were maintained at 37°C in 5% CO2. The cultures were used 8–9 days after plating. Neurons and astrocytes were identified with antibodies against microtubule-associated protein-2 and GFAP, respectively.\nIschemic damage was induced by incubating cell cultures for 1 h in a hyperbaric chamber in a nitrogen-saturated buffer containing: 130 mM NaCl, 5.4 mM KCl, 0.1323 mM CaCl2, 0.26 mM NaHCO3, 0.8 mM MgCl2, 1.18 mM NaH2PO4, 10 mM sucrose (OGD plus sucrose) and iodoacetate (IAA, 20 or 50 µM). IAA is a glycolytic blocker typically used in OGD experiments to simulate ischemic conditions. After the insult, the cells were incubated under normoxic conditions for an additional 24 h in the presence of glucose but in the absence of IAA. Distinct reagents were added during ischemia to evaluate their neuroprotective activity by assessing cell viability and cell death in the cultures.\nThe cell status was assessed by measuring the release of lactate dehydrogenase (LDH) from dead cells. LDH was measured spectrophotometrically at 490 nm on a 96-well plate reader using the Cytotox 96 Kit according to the manufacturer's instructions (Promega). The LDH release was defined by the ratio of LDH released to the total LDH present in the cell at the beginning of the treatment."}, "[4]": {"tested_on": "rat mixed astrocyte-neuron cultures", "test": "NMDA-induced caspase 3 activation in mixed astrocyte-neuron cultures", "format": "cell-based", "conditions": "pre- or co-treatment; MTA 250 µM, MK-801 10 µM; 300 µM NMDA", "experimental": "as §1\nTo assay N-methyl–D-aspartate (NMDA) excitotoxicity, primary cultures were seeded in 24-well plates at 15×10^4 cells/well, cultured for 7 days in vitro, and treated for different times with the vehicle alone (dimethyl sulfoxide (DMSO) 1%), NMDA (300 µM), NMDA (300 µM) + MTA (250 µM) or NMDA (300 µM) + MK-801, a NMDA receptor antagonist (10 µM). […] Caspase 3 activity was measured in these lysates one hour after the NMDA addition.\nCortical neurons, or mixed cortical neurons and glia, were seeded in poly-L-lysine-coated 6-well culture plates during 7 days in vitro before start the set of experiments. […] The extracts were then centrifuged at 5,000×g for 10 min at 4°C and the protein content was determined by the BCA protein assay. […]"}, "[5]": {"tested_on": "C57Bl mice treated with MPTP", "test": "MPTP mouse model of Parkinson's disease, stereological counting of TH+ neurons", "format": "in vivo", "conditions": "MTA 30 mg/kg, MSX-3 10 mg/kg (legend: 9 mg/kg), alone or combined; MPTP 30 mg/kg i.p. 5 days", "experimental": "12-week-old male C57Bl mice from Charles River (Barcelona, Spain) were injected i.p. with 30 mg/kg 1-methyl-4-phenyl-1,2,3,6-tetrahydropyridine (MPTP, Sigma-Aldrich) on five consecutive days. Subsequently, MTA (30 mg/kg) and/or the A2A adenosine receptor (A2AR, 10 mg/kg) antagonist, MSX-3 (Sigma-Aldrich), was administered one day before starting MPTP treatment and 1 h after each MPTP injection (n = 6 in each experimental group). We used mice in the MPTP model because rats are resistant to systemic MPTP administration and thus, the rat MPTP model requires stereotaxic MPTP injection directly into the nigrostriatal fibers. […]\nThe reference volume was calculated according to Cavalieri principles from images obtained with a 2× objective using a point count array. The cross-sectional area of the nucleus was measured and the reference volume (Vr) for the entire nucleus was estimated using the following equation: [drawing 1] where T is the thickness of the sections, a/p is the area of each point and Pi is the number of points that landed within the area. The region of interest to estimate the area was outlined at low magnification (4×), and the number of labeled neurons was calculated under 100× magnification (with oil immersion) using randomized meander sampling and the optical dissector methods. […]"}},
  "data": [
    {"compound": "CC(C)NCC(O)COc1cccc2ccccc12", "note": "(stereo not drawn) [Propanolol, propranolol]", "values": [
      {"measurement": "Membrane retention", "setting": "[1]", "value": 30, "unit": "%"},
      {"measurement": "% Membrane retention", "setting": "[1]; 200 µM, pH 7.4, 4 h at RT", "value": 30.2, "unit": "%"},
      {"measurement": "Pe x 10^−6 (cm/s)", "setting": "[1]; 200 µM, pH 7.4, 4 h at RT", "value": "10.3 x 10^−6 cm/s"}
    ]},
    {"compound": "Apo E: control compound in the in vitro cell model of BBB", "values": [
      {"measurement": "Pe x 10^−6 (cm/s)", "setting": "[2]", "value": "2.2 x 10^−6 cm/s"},
      {"measurement": "effective permeability coefficient (Pe)", "setting": "[2]", "value": 22, "unit": "nm/s"}
    ]},
    {"compound": "N[C@H](CCCP(=O)(O)O)C(=O)O", "note": "[APV, (2R)-amino-5-phosphonovaleric acid, reference compound]", "values": [
      {"measurement": "protection against OGD (cell death, LDH release)", "setting": "[3]", "value": "similar"}
    ]},
    {"compound": "C[C@]12N[C@H](Cc3ccccc31)c1ccccc12", "note": "[MK-801, reference compound]", "values": [
      {"measurement": "caspase 3 activation induced by NMDA", "setting": "[4]", "value": "reverted to basal levels"}
    ]},
    {"compound": "Transferrin: control compound in the in vitro cell model of BBB", "values": [
      {"measurement": "Pe x 10^−6 (cm/s)", "setting": "[2]", "value": "8.2 x 10^−6 cm/s"},
      {"measurement": "effective permeability coefficient (Pe)", "setting": "[2]", "value": 82, "unit": "nm/s"}
    ]},
    {"compound": "C#CCn1c(=O)c2c(nc(/C=C/c3cccc(OC)c3)n2C)n(CCCOP(=O)([O-])[O-])c1=O.[Na+].[Na+]", "note": "[MSX-3, reference compound]", "values": [
      {"measurement": "neuroprotection: TH+ neurons in the substantia nigra", "setting": "[5]", "value": "not statistically significant"}
    ]},
    {"compound": "NC(=O)N1c2ccccc2C=Cc2ccccc21", "note": "[Carbamazepine]", "values": [
      {"measurement": "% Membrane retention", "setting": "[1]; 200 µM, pH 7.4, 4 h at RT", "value": 0.5, "unit": "%"},
      {"measurement": "Papp at 4 h, 200 µM", "setting": "[1]; 200 µM, pH 7.4, 4 h at RT, read-out: Pe x 10^−6", "value": 115, "unit": "nm/s"}
    ]}
  ]
}
